Patent publication US12391648B2, “Pyridyloxy thioester derivative and preparation method therefor, herbicidal composition, and application” (Qingdao Kingagroot Chemical Compound Co., Ltd., priority 2018, dated 2025)

Key:
Test in all cases: Post-emergence test experiment (Table 3, 1000 g/ha)
Type in all cases: in vivo
Conditions in all cases: post-emergence spray, after 3 weeks, fresh weight inhibition
[1] = tested on: Setaria viridis
Source text: (§1) The activity level standard of harmful plants destruction (i. e. growth inhibition rate) is as follows: • Level 5: the growth inhibition rate is greater than 85%; • Level 4: the growth inhibition rate is equal to or greater than 60% and less than 85%; • Level 3: the growth inhibition rate is equal to or greater than 40% and less than 60%; • Level 2: the growth inhibition rate is equal to or greater than 20% and less than 40%; • Level 1: the growth inhibition rate is equal to or greater than 5% and less than 20%; • Level 0: the growth inhibition rate is less than 5%;
(§2) The above described growth inhibition rate is fresh weight inhibition rate.
(§3) Post-emergence test experiment: Monocotyledonous and dicotyledonous weed seeds and main crop seeds (i. e. wheat, corn, rice, soybean, cotton, oilseed, millet and sorghum.) were put into a plastic pot loaded with soil. Then covered with 0.5-2 cm soil, the seeds were allowed to grow in good greenhouse environment. The test plants were treated at 2-3 leaf stage 2 weeks after sowing. The test compounds of the invention were dissolved with acetone respectively, then added with tween-80, and using 1.5 liters per hectare of an emulsible concentrate of methyl oleate as a synergist, and diluted by certain amount of water to certain concentration. The solution was sprayed to the plants with a sprayer. Then the plants were cultured for 3 weeks in the greenhouse, and the experiment result of weed controlling effect after 3 weeks was listed in tables 3-4.

[2] = tested on: Leptochloa chinensis
Source text: as §1, §2, §3

[3] = tested on: Monochoria vaginalis
Source text: as §1, §2, §3

[4] = tested on: Galium spurium
Source text: as §1, §2, §3

[5] = tested on: Abutilon theophrasti
Source text: as §1, §2, §3

[6] = tested on: Digitaria sanguinalis
Source text: as §1, §2, §3

SMILES: CSC(=O)C(C)Oc1nc(Cl)c(Cl)c(N)c1Cl (stereo not drawn) [Compound 2]
- Activity level (growth inhibition rate) Setaria viridis [1]: 5 (Level 5: the growth inhibition rate is greater than 85%)
- Activity level (growth inhibition rate) Leptochloa chinensis [2]: 5 (Level 5: the growth inhibition rate is greater than 85%)
- Activity level (growth inhibition rate) Monochoria Vaginalis [3]: 5 (Level 5: the growth inhibition rate is greater than 85%)
- Activity level (growth inhibition rate) Galium spurium [4]: 5 (Level 5: the growth inhibition rate is greater than 85%)
- Activity level (growth inhibition rate) Abutilon theophrasti [5]: 5 (Level 5: the growth inhibition rate is greater than 85%)
- Activity level (growth inhibition rate) Digitaria sanguinalis [6]: 5 (Level 5: the growth inhibition rate is greater than 85%)

SMILES: CC(C)=NOCCSC(=O)C(C)Oc1nc(C)c(Cl)c(N)c1Cl (stereo not drawn) [Compound 5]
- Activity level (growth inhibition rate) Setaria viridis [1]: 5 (Level 5: the growth inhibition rate is greater than 85%)
- Activity level (growth inhibition rate) Leptochloa chinensis [2]: 5 (Level 5: the growth inhibition rate is greater than 85%)
- Activity level (growth inhibition rate) Monochoria Vaginalis [3]: 5 (Level 5: the growth inhibition rate is greater than 85%)
- Activity level (growth inhibition rate) Galium spurium [4]: 5 (Level 5: the growth inhibition rate is greater than 85%)
- Activity level (growth inhibition rate) Abutilon theophrasti [5]: 5 (Level 5: the growth inhibition rate is greater than 85%)
- Activity level (growth inhibition rate) Digitaria sanguinalis [6]: 5 (Level 5: the growth inhibition rate is greater than 85%)

SMILES: CSC(=O)C(C)Oc1nc(C(F)(F)F)c(Cl)c(N)c1Cl (stereo not drawn) [Compound 6]
- Activity level (growth inhibition rate) Setaria viridis [1]: 5 (Level 5: the growth inhibition rate is greater than 85%)
- Activity level (growth inhibition rate) Leptochloa chinensis [2]: 5 (Level 5: the growth inhibition rate is greater than 85%)
- Activity level (growth inhibition rate) Monochoria Vaginalis [3]: 5 (Level 5: the growth inhibition rate is greater than 85%)
- Activity level (growth inhibition rate) Galium spurium [4]: 5 (Level 5: the growth inhibition rate is greater than 85%)
- Activity level (growth inhibition rate) Abutilon theophrasti [5]: 5 (Level 5: the growth inhibition rate is greater than 85%)
- Activity level (growth inhibition rate) Digitaria sanguinalis [6]: 5 (Level 5: the growth inhibition rate is greater than 85%)

SMILES: CCc1c(OC(C)C(=O)SC)nc(C(F)(F)F)c(CC)c1N (stereo not drawn) [Compound 8]
- Activity level (growth inhibition rate) Setaria viridis [1]: 5 (Level 5: the growth inhibition rate is greater than 85%)
- Activity level (growth inhibition rate) Leptochloa chinensis [2]: 5 (Level 5: the growth inhibition rate is greater than 85%)
- Activity level (growth inhibition rate) Monochoria Vaginalis [3]: 5 (Level 5: the growth inhibition rate is greater than 85%)
- Activity level (growth inhibition rate) Galium spurium [4]: 5 (Level 5: the growth inhibition rate is greater than 85%)
- Activity level (growth inhibition rate) Abutilon theophrasti [5]: 5 (Level 5: the growth inhibition rate is greater than 85%)
- Activity level (growth inhibition rate) Digitaria sanguinalis [6]: 5 (Level 5: the growth inhibition rate is greater than 85%)

SMILES: CSC(=O)C(C)Oc1ncc(C(C)C)c(N)c1Cl (stereo not drawn) [Compound 9]
- Activity level (growth inhibition rate) Setaria viridis [1]: 5 (Level 5: the growth inhibition rate is greater than 85%)
- Activity level (growth inhibition rate) Leptochloa chinensis [2]: 5 (Level 5: the growth inhibition rate is greater than 85%)
- Activity level (growth inhibition rate) Monochoria Vaginalis [3]: 5 (Level 5: the growth inhibition rate is greater than 85%)
- Activity level (growth inhibition rate) Galium spurium [4]: 5 (Level 5: the growth inhibition rate is greater than 85%)
- Activity level (growth inhibition rate) Abutilon theophrasti [5]: 5 (Level 5: the growth inhibition rate is greater than 85%)
- Activity level (growth inhibition rate) Digitaria sanguinalis [6]: 5 (Level 5: the growth inhibition rate is greater than 85%)

SMILES: CSC(=O)C(C)Oc1nc(Cl)c(C2CC2)c(N)c1Cl (stereo not drawn) [Compound 10]
- Activity level (growth inhibition rate) Setaria viridis [1]: 5 (Level 5: the growth inhibition rate is greater than 85%)
- Activity level (growth inhibition rate) Leptochloa chinensis [2]: 5 (Level 5: the growth inhibition rate is greater than 85%)
- Activity level (growth inhibition rate) Monochoria Vaginalis [3]: 5 (Level 5: the growth inhibition rate is greater than 85%)
- Activity level (growth inhibition rate) Galium spurium [4]: 5 (Level 5: the growth inhibition rate is greater than 85%)
- Activity level (growth inhibition rate) Abutilon theophrasti [5]: 5 (Level 5: the growth inhibition rate is greater than 85%)
- Activity level (growth inhibition rate) Digitaria sanguinalis [6]: 5 (Level 5: the growth inhibition rate is greater than 85%)

SMILES: CSC(=O)C(C)Oc1nc(C(F)(F)F)c(F)c(N)c1C(C)C (stereo not drawn) [Compound 11]
- Activity level (growth inhibition rate) Setaria viridis [1]: 5 (Level 5: the growth inhibition rate is greater than 85%)
- Activity level (growth inhibition rate) Leptochloa chinensis [2]: 5 (Level 5: the growth inhibition rate is greater than 85%)
- Activity level (growth inhibition rate) Monochoria Vaginalis [3]: 5 (Level 5: the growth inhibition rate is greater than 85%)
- Activity level (growth inhibition rate) Galium spurium [4]: 5 (Level 5: the growth inhibition rate is greater than 85%)
- Activity level (growth inhibition rate) Abutilon theophrasti [5]: 5 (Level 5: the growth inhibition rate is greater than 85%)
- Activity level (growth inhibition rate) Digitaria sanguinalis [6]: 5 (Level 5: the growth inhibition rate is greater than 85%)

SMILES: CSC(=O)C(C)Oc1nc(F)c(Br)c(N)c1Br (stereo not drawn) [Compound 12]
- Activity level (growth inhibition rate) Setaria viridis [1]: 5 (Level 5: the growth inhibition rate is greater than 85%)
- Activity level (growth inhibition rate) Leptochloa chinensis [2]: 5 (Level 5: the growth inhibition rate is greater than 85%)
- Activity level (growth inhibition rate) Monochoria Vaginalis [3]: 5 (Level 5: the growth inhibition rate is greater than 85%)
- Activity level (growth inhibition rate) Galium spurium [4]: 5 (Level 5: the growth inhibition rate is greater than 85%)
- Activity level (growth inhibition rate) Abutilon theophrasti [5]: 5 (Level 5: the growth inhibition rate is greater than 85%)
- Activity level (growth inhibition rate) Digitaria sanguinalis [6]: 5 (Level 5: the growth inhibition rate is greater than 85%)

SMILES: CSC(=O)C(C)Oc1ncc(I)c(N)c1I (stereo not drawn) [Compound 13]
- Activity level (growth inhibition rate) Setaria viridis [1]: 5 (Level 5: the growth inhibition rate is greater than 85%)
- Activity level (growth inhibition rate) Leptochloa chinensis [2]: 5 (Level 5: the growth inhibition rate is greater than 85%)
- Activity level (growth inhibition rate) Monochoria Vaginalis [3]: 5 (Level 5: the growth inhibition rate is greater than 85%)
- Activity level (growth inhibition rate) Galium spurium [4]: 5 (Level 5: the growth inhibition rate is greater than 85%)
- Activity level (growth inhibition rate) Abutilon theophrasti [5]: 5 (Level 5: the growth inhibition rate is greater than 85%)
- Activity level (growth inhibition rate) Digitaria sanguinalis [6]: 5 (Level 5: the growth inhibition rate is greater than 85%)

SMILES: CCCc1c(F)nc(OC(C)C(=O)SC)c(C2CC2)c1N (stereo not drawn) [Compound 14]
- Activity level (growth inhibition rate) Setaria viridis [1]: 5 (Level 5: the growth inhibition rate is greater than 85%)
- Activity level (growth inhibition rate) Leptochloa chinensis [2]: 5 (Level 5: the growth inhibition rate is greater than 85%)
- Activity level (growth inhibition rate) Monochoria Vaginalis [3]: 5 (Level 5: the growth inhibition rate is greater than 85%)
- Activity level (growth inhibition rate) Galium spurium [4]: 5 (Level 5: the growth inhibition rate is greater than 85%)
- Activity level (growth inhibition rate) Abutilon theophrasti [5]: 5 (Level 5: the growth inhibition rate is greater than 85%)
- Activity level (growth inhibition rate) Digitaria sanguinalis [6]: 5 (Level 5: the growth inhibition rate is greater than 85%)

SMILES: CSC(=O)C(C)Oc1nc(F)c(C(F)(F)F)c(N)c1Cl (stereo not drawn) [Compound 15]
- Activity level (growth inhibition rate) Setaria viridis [1]: 5 (Level 5: the growth inhibition rate is greater than 85%)
- Activity level (growth inhibition rate) Leptochloa chinensis [2]: 5 (Level 5: the growth inhibition rate is greater than 85%)
- Activity level (growth inhibition rate) Monochoria Vaginalis [3]: 5 (Level 5: the growth inhibition rate is greater than 85%)
- Activity level (growth inhibition rate) Galium spurium [4]: 5 (Level 5: the growth inhibition rate is greater than 85%)
- Activity level (growth inhibition rate) Abutilon theophrasti [5]: 5 (Level 5: the growth inhibition rate is greater than 85%)
- Activity level (growth inhibition rate) Digitaria sanguinalis [6]: 5 (Level 5: the growth inhibition rate is greater than 85%)

SMILES: CCSC(=O)C(C)Oc1ncc(Cl)c(N)c1C(F)(F)F (stereo not drawn) [Compound 16]
- Activity level (growth inhibition rate) Setaria viridis [1]: 5 (Level 5: the growth inhibition rate is greater than 85%)
- Activity level (growth inhibition rate) Leptochloa chinensis [2]: 5 (Level 5: the growth inhibition rate is greater than 85%)
- Activity level (growth inhibition rate) Monochoria Vaginalis [3]: 5 (Level 5: the growth inhibition rate is greater than 85%)
- Activity level (growth inhibition rate) Galium spurium [4]: 5 (Level 5: the growth inhibition rate is greater than 85%)
- Activity level (growth inhibition rate) Abutilon theophrasti [5]: 5 (Level 5: the growth inhibition rate is greater than 85%)
- Activity level (growth inhibition rate) Digitaria sanguinalis [6]: 5 (Level 5: the growth inhibition rate is greater than 85%)
